Values quoted from earlier work in patent publication US8785725B2, “Method for generating resistance against citrus diseases caused by insects, fungi, oomycetes, bacteria or nematodes” (Institute Valenciano de Investigaciones Agrarias, priority 2009, dated 2014).

C=C(C)C1CC=C(C)CC1 (stereo not drawn) [d-limonene, 1-methyl-4-(1-methylethenyl)cyclohexene]
miscibility with alcohol (alcohol): miscible with alcohol
solubility in water (water): insoluble in water
